From PubChem BioAssay AID330 (DTP/NCI, 2004)
Where “and” joins values, the source holds several entries; their conditions need not be identical. Identical values can stand only once. Inconclusive results and toxic doses are left out. How the source made its calls: active means survival T/C of 150% or more; inactive means T/C below 125% in these data.

Tested on: P388 leukemia ip, CD2F1 mice, survival T/C
Test: NCI In Vivo Anticancer Drug Screen. Data for tumor model P388 Leukemia (intraperitoneal) in CD2F1 (CDF1) mice
Conditions: endpoint: median survival time, higher = longer survival
In short: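 Mice carrying the transplanted tumor received test compound or vehicle. Survival was recorded in each group, and the value is the treated-group measurement divided by that of the vehicle-treated control group.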

[1] = dose: 50.0 mg/kg/injection, schedule: Q01DX005 (ip), vehicle: saline with Tween-80
[2] = dose: 50.0 mg/kg/injection, schedule: Q01DX009 (ip), vehicle: saline
[3] = dose: 100.0 mg/kg/injection, schedule: Q01DX009 (ip), vehicle: saline
[4] = dose: 200.0 mg/kg/injection, schedule: Q01DX009 (ip), vehicle: saline
[5] = dose: 50.0 mg/kg/injection, schedule: Q01DX009 (ip), vehicle: Klucel (hydroxypropylcellulose) (HPC)
[6] = dose: 100.0 mg/kg/injection, schedule: Q01DX009 (ip), vehicle: Klucel (hydroxypropylcellulose) (HPC)
[7] = dose: 200.0 mg/kg/injection, schedule: Q01DX009 (ip), vehicle: Klucel (hydroxypropylcellulose) (HPC)
[8] = dose: 100.0 mg/kg/injection, schedule: Q01DX005 (ip), vehicle: saline with Tween-80
[9] = dose: 200.0 mg/kg/injection, schedule: Q01DX005 (ip), vehicle: saline with Tween-80
[10] = dose: 60.0 mg/kg/injection, schedule: Q01DX005 (ip), vehicle: saline with Tween-80
[11] = dose: 120.0 mg/kg/injection, schedule: Q01DX005 (ip), vehicle: saline with Tween-80
[12] = dose: 240.0 mg/kg/injection, schedule: Q01DX005 (ip), vehicle: saline with Tween-80
[13] = dose: 50.0 mg/kg/injection, schedule: Q01DX009 (ip), vehicle: saline with Tween-80
[14] = dose: 100.0 mg/kg/injection, schedule: Q01DX009 (ip), vehicle: saline with Tween-80
[15] = dose: 200.0 mg/kg/injection, schedule: Q01DX009 (ip), vehicle: saline with Tween-80
[16] = dose: 50.0 mg/kg/injection, schedule: Q01DX005 (ip), vehicle: Klucel (hydroxypropylcellulose) (HPC)
[17] = dose: 100.0 mg/kg/injection, schedule: Q01DX005 (ip), vehicle: Klucel (hydroxypropylcellulose) (HPC)
[18] = dose: 200.0 mg/kg/injection, schedule: Q01DX005 (ip), vehicle: Klucel (hydroxypropylcellulose) (HPC)
[19] = dose: 100.0 mg/kg/injection, schedule: Q04DX002 (ip), vehicle: saline with Tween-80
[20] = dose: 100.0 mg/kg/injection, schedule: Q04DX003 (ip), vehicle: saline with Tween-80
[21] = dose: 200.0 mg/kg/injection, schedule: Q04DX003 (ip), vehicle: saline with Tween-80
[22] = dose: 400.0 mg/kg/injection, schedule: Q04DX003 (ip), vehicle: saline with Tween-80

Measured: T/C

O=c1[nH]nc2ccc(n[nH]c1=O)c1ccccc21
inactive: dose: 3.13 mg/kg/injection, schedule: Q01DX005 (ip), vehicle: saline with Tween-80 104 % of control | dose: 6.25 mg/kg/injection, schedule: Q01DX005 (ip), vehicle: saline with Tween-80 107 % of control | dose: 12.5 mg/kg/injection, schedule: Q01DX005 (ip), vehicle: saline with Tween-80 99 % of control and 103 % of control | dose: 25.0 mg/kg/injection, schedule: Q01DX005 (ip), vehicle: saline with Tween-80 101 % of control | [1] 104 % of control and 107 % of control

CCN(CC)CCC(=O)/C=C/c1ccccc1
inactive: dose: 25.0 mg/kg/injection, schedule: Q01DX009 (ip), vehicle: saline 111 % of control | [2] 116 % of control and 118 % of control

COc1cccc(O)c1O
inactive: [3] 101 % of control | [4] 100 % of control | dose: 400.0 mg/kg/injection, schedule: Q01DX009 (ip), vehicle: saline 111 % of control

Cc1ncc([N+](=O)[O-])n1Cc1nncs1
inactive: [5] 108 % of control | [6] 107 % of control | [7] 104 % of control

O=c1c(-c2ccc(O)cc2)coc2c(C3OC(CO)C(O)C(O)C3O)c(O)ccc12 (stereo not given)
inactive: [1] 104 % of control | [8] 101 % of control | [9] 93 % of control

CCOC(=O)C1=CC(C(=O)OCC)=C2C=CC=C3C=CC=C1N32
inactive: [10] 93 % of control | [11] 90 % of control | [12] 88 % of control

CNC(=S)N(C1CCCCC1)C1CCCCC1
inactive: [13] 103 % of control | [14] 105 % of control | [15] 100 % of control

CCOC(=O)c1c(C)c(C(=O)OCC)n(CC)c1C=O
inactive: [13] 96 % of control | [14] 98 % of control | [15] 98 % of control

CC1(C)OC(=O)C(C)(C2(O)C=CCCC2)O1 (stereo not given)
inactive: dose: 100.0 mg/kg/injection, schedule: Q01DX001 (ip), vehicle: Klucel (hydroxypropylcellulose) (HPC) 102 % of control | dose: 200.0 mg/kg/injection, schedule: Q01DX001 (ip), vehicle: Klucel (hydroxypropylcellulose) (HPC) 102 % of control | dose: 400.0 mg/kg/injection, schedule: Q01DX001 (ip), vehicle: Klucel (hydroxypropylcellulose) (HPC) 101 % of control

CN(C)CC(C(=O)/C=C/c1ccccc1)C(C)(C)C (stereo not given)
inactive: dose: 60.0 mg/kg/injection, schedule: Q01DX005 (ip), vehicle: saline 105 % of control | dose: 120.0 mg/kg/injection, schedule: Q01DX005 (ip), vehicle: saline 104 % of control

CC(=O)C1=CN(Cc2ccccc2)C=C(C(C)C)C1
inactive: dose: 50.0 mg/kg/injection, schedule: Q04DX003 (ip), vehicle: saline 98 % of control | dose: 50.0 mg/kg/injection, schedule: Q04DX003 (ip), vehicle: suspension in saline 104 % of control | dose: 100.0 mg/kg/injection, schedule: Q04DX003 (ip), vehicle: saline 101 % of control | dose: 100.0 mg/kg/injection, schedule: Q04DX003 (ip), vehicle: suspension in saline 103 % of control | dose: 200.0 mg/kg/injection, schedule: Q04DX003 (ip), vehicle: saline 104 % of control | dose: 200.0 mg/kg/injection, schedule: Q04DX003 (ip), vehicle: suspension in saline 105 % of control

CN1C=C/C(=C/[N+](=O)[O-])N(C)C1=O
inactive: dose: 25.0 mg/kg/injection, schedule: Q01DX005 (ip), vehicle: Klucel (hydroxypropylcellulose) (HPC) 99 % of control | [16] 105 % of control | [17] 100 % of control | [18] 112 % of control

c1ccc(-c2ccccc2C2=NC2)c(C2=NC2)c1
inactive: dose: 25.0 mg/kg/injection, schedule: Q04DX002 (ip), vehicle: saline with Tween-80 99 % of control | dose: 50.0 mg/kg/injection, schedule: Q04DX002 (ip), vehicle: saline with Tween-80 100 % of control | [19] 99 % of control and 94 % of control

O=C(Nc1ccccc1)C1(C(=O)Nc2ccccc2)SSC(C(=O)Nc2ccccc2)(C(=O)Nc2ccccc2)SS1
inactive: [1] 107 % of control | [8] 96 % of control | [9] 89 % of control

Cc1ccc(NCC2CCCN3CCCCC23)c2c(=O)c3cc(O)ccc3sc12 (stereo not given)
inactive: [19] 97 % of control | dose: 200.0 mg/kg/injection, schedule: Q04DX002 (ip), vehicle: saline with Tween-80 102 % of control

O=C(O)CCCCCSCCCCCCSCCCCCC(=O)O
inactive: [16] 102 % of control | [17] 105 % of control | [18] 100 % of control

COCOCC(N)CS(C)=O (stereo not given)
inactive: dose: 50.0 mg/kg/injection, schedule: Q01DX005 (ip), vehicle: water 105 % of control | dose: 100.0 mg/kg/injection, schedule: Q01DX005 (ip), vehicle: water 97 % of control | dose: 200.0 mg/kg/injection, schedule: Q01DX005 (ip), vehicle: water 102 % of control

CCC1=C2C(=O)c3ccccc3C2=C(C)S(=O)(=O)O1
inactive: dose: 50.0 mg/kg/injection, schedule: Q04DX003 (ip), vehicle: saline with Tween-80 109 % of control | [20] 86 % of control

COC(=O)c1nc(N)nc(C(=O)OC)c1C(=O)c1c(C)[nH]c2ccccc12
inactive: [10] 114 % of control | [11] 91 % of control

Cc1ccc(S(=O)(=O)NC(=O)Nn2c(C)nc3ccccc3c2=O)cc1
inactive: [16] 103 % of control | [17] 102 % of control | [18] 106 % of control

CN(c1ccccc1)C1CS(=O)(=O)OC2=C1CCCC2 (stereo not given)
inactive: [13] 98 % of control | [14] 102 % of control | [15] 104 % of control

Cn1cnc([N+](=O)[O-])c1Sc1n[nH]c(N)n1
inactive: [16] 111 % of control | [17] 117 % of control | [18] 108 % of control

CC(=O)n1oc2c(Br)cc(Br)cc2c1=O
inactive: [16] 116 % of control | [17] 103 % of control | [18] 107 % of control

CC1C2=C(CC(=O)NC2=O)C(=O)N1Cc1ccccc1 (stereo not given)
inactive: [5] 103 % of control | [6] 106 % of control | [7] 97 % of control

Cc1ccc(NC2OC(CO)C(O)C(O)C2O)cc1 (stereo not given)
inactive: [2] 104 % of control | [3] 111 % of control | [4] 98 % of control

O=C(Nc1cc(Cl)c([N+](=O)[O-])cc1O)c1ccco1
inactive: [5] 106 % of control | [6] 99 % of control | [7] 98 % of control

Nc1c(Cl)c(Cl)cc(Cl)c1Cl
inactive: [20] 100 % of control | [21] 104 % of control | [22] 104 % of control

Cc1ccc(C(=O)CC[N+](C)(C)C)cc1
inactive: dose: 3.13 mg/kg/injection, schedule: Q01DX009 (ip), vehicle: saline 109 % of control | dose: 6.25 mg/kg/injection, schedule: Q01DX009 (ip), vehicle: saline 113 % of control | dose: 12.5 mg/kg/injection, schedule: Q01DX009 (ip), vehicle: saline 109 % of control

O=C1c2ccccc2C2(c3ccc(O)cc3)c3ccccc3Oc3cccc1c32 (stereo not given)
inactive: [1] 90 % of control | [8] 92 % of control | [9] 95 % of control

O=C(/C=C/c1ccccc1)Cc1nc2nnc(NC(=O)Nc3ccc(Cl)cc3)n2[nH]c1=O
inactive: [10] 99 % of control | [11] 94 % of control | [12] 102 % of control

CN(C(=S=O)c1ccccc1)c1ccc([N+](=O)[O-])cc1
inactive: dose: 50.0 mg/kg/injection, schedule: Q04DX002 (ip), vehicle: saline 95 % of control | dose: 100.0 mg/kg/injection, schedule: Q04DX002 (ip), vehicle: saline 95 % of control | dose: 200.0 mg/kg/injection, schedule: Q04DX002 (ip), vehicle: saline 96 % of control

CN(C)c1ccc(C(=O)C(=O)c2ccccc2)cc1
inactive: dose: 100.0 mg/kg/injection, schedule: Q04DX003 (ip), vehicle: Klucel (hydroxypropylcellulose) (HPC) 106 % of control | dose: 200.0 mg/kg/injection, schedule: Q04DX003 (ip), vehicle: Klucel (hydroxypropylcellulose) (HPC) 99 % of control | dose: 400.0 mg/kg/injection, schedule: Q04DX003 (ip), vehicle: Klucel (hydroxypropylcellulose) (HPC) 100 % of control

CC(O)(Cc1ccccc1)c1ccccc1 (stereo not given)
inactive: [20] 100 % of control | [21] 104 % of control | [22] 109 % of control
